Reference: US20070117770A1, “Human ribosomal DNA (rDNA) and ribosomal RNA (rRNA) nucleic acids and uses thereof” (Cylene Pharmaceuticals, Inc., priority 2005, published 2007)

Assays:
[1] = tested on: cellular DNA or RNA in A549 cells; assay: Cellular target study, RNase A or DNase I treatment of compound-treated cells; format: cell-based; conditions: 2 uM
Procedure: To determine the cellular target of rRNA-interacting compounds, a study was conducted to ascertain whether the compounds could select for cellular DNA or RNA. In these studies A549 cells were plated in borosilicate chamber slides. The cells were treated with 2 uM compound A-1 the next day for one hour or two hours, washed with PBS, fixed for 10 min in 4% paraformaldehyde, permeabilized for 5 min in 1:1 ethanol:acetone mix, treated with 2.5 ug/mL of RNase A or 340 Kunitz units/mL of DNase I and observed under a fluorescence microscope (Olympus) in the Ex360 nm/Em548 nm channel at 600× magnification. […] Accordingly, a compound tested in the assay interacted with RNA preferentially over DNA in cells.

[2] = tested on: fibrillarin in A549 cells; assay: Cell fibrillarin localization (immunofluorescence); format: cell-based; conditions: protocol as for nucleolin
Procedure: An assay was conducted to determine the effect of ribosomal nucleic acid interacting compounds on cell nucleolin location. In these studies, A549 cells were plated in borosilicate chamber slides. The cells were treated with 10 uM compound A-1 the next day for two hours, washed with phosphate buffered saline, fixed for 10 minutes in 4% paraformaldehyde, permeabilized for 5 minutes in a 1:1 ethanol:acetone mix, incubated with a 1:100 dilution of an anti-nucleolin monoclonal antibody (catalog no. RDI-NUCLEOLabm; Research Diagnostics, Inc.) in 5% donkey serum, followed by incubation with a 1:100 diluted TRITC-labeled secondary anti-mouse antibody and observed under a fluorescence microscope (e.g., Olympus) in the TRITC channel at 600× magnification. […] Accordingly, nucleolin was redistributed from the nucleolus to the nucleoplasm in cells treated with a compound tested in the assay.
Another assay was conducted to determine the effect of ribosomal nucleic acid interacting compounds on cell fibrillarin location. These studies were conducted using a protocol similar to that described in the preceding paragraph, except an antibody that specifically bound to fibrillarin (catalog no. ab5821; Novus Biologicals, Inc.) was utilized.

[3] = molecular target: T1, nucleolin/8749NT (Homo sapiens, UniProt P19338); assay: EMSA, interference with nucleolin/nucleic acid ligand interaction; format: binding; design: key to Activity of Compound A-1 (relative interference), ligand 8749NT: +: least interference by compound A-1; ++++: greatest interference by compound A-1
T1 construct: without the N-terminal acidic stretches domain
Procedure: The following assays assessed effects of compounds on interactions between nucleolin and nucleic acid ligands capable of forming quadruplex (QP) and hairpin (HP) secondary structures. Nucleic acid ligands tested were a cMyc QP DNA having nucleotide sequence 5′-[…]-3′ (SEQ ID NO: 176) and a HP pre-rRNA region to which nucleolin binds, having the sequence 5′-[…]-3′ (SEQ ID NO: 177). In the assays, recombinant nucleolin (˜250 nM), which was fused to maltose binding protein and had the sequence under accession number NM_005381 without the N-terminal acidic stretches domain, was incubated with each of the two ^32P-labeled nucleic acid ligands (10 or 250 nM). Nucleolin and the nucleic acid ligand were incubated in the presence or absence of a test compound of Formula A-1, B-1, C-6 or C-7 in an incubation buffer (12.5 mM Tris, pH 7.6, 60 mM KCl, 1 mM MgCl2, 0.1 mM EDTA, 1 mM DTT, 5% glycerol, 0.1 mg/ml BSA) for 30 minutes at room temperature. Structures for A-1 and B-1 are shown above and structures for C-6 and C-7 are shown hereafter: [drawing 17] […]
The assay also was conducted in a filter-binding format. […] Radioactivity was assayed with MicroBeta scintillation counter (Perkin Elmer). Binding curves were constructed and apparent Kd's and Bmax's for the complexes were calculated using the GraphPad Prizm software program (GraphPad Software). […]

[4] = tested on: A549 cells; assay: Cell localization assay (fluorescence microscope); format: cell-based; conditions: 2 uM, one hour or two hours
Procedure: A cell localization assay was utilized to determine cell localization for compounds that interacted with rRNA. In these studies, A549 cells were plated in borosilicate chamber slides. The cells were treated with 2 uM compound A-1 the next day for one hour or two hours, washed with PBS, fixed for 10 min in 4% paraformaldehyde and observed under a fluorescence microscope (Olympus) in the Ex360 nm/Em548 nm channel at 600× magnification. […] Accordingly, a compound tested in the assay was localized in cell nucleoli.

T1 sequence (P19338 284-710 limits assumed): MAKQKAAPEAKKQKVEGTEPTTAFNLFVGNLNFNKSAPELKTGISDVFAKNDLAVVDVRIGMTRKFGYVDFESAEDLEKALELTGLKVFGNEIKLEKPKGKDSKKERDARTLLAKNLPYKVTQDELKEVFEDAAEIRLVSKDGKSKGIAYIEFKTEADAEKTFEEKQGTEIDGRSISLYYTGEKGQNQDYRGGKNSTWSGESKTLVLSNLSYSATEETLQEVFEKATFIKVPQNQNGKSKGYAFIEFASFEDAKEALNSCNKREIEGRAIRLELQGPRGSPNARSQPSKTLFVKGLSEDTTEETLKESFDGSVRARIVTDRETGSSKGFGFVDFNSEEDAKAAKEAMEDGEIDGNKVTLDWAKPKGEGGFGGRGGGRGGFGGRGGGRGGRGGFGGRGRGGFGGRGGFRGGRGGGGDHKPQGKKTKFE

SMILES: CN1CCCC1CCNC(=O)c1cn2c3c(c(N4CCC(c5cnccn5)C4)c(F)cc3c1=O)Oc1cc3ccccc3cc1-2 (stereo not drawn) [Compound A-1]
- effect of RNase treatment on nucleolar staining by the drug ([1]; 2.5 ug/mL RNase A): significantly reduced nucleolar staining
- effect of DNase I treatment on compound localization ([1]; 340 Kunitz units/mL DNase I): minimal effect
- fibrillarin localization in treated cells [2]: caused redistribution of fibrillarin
- Activity of Compound A-1 (relative interference), ligand 8749NT [3]: +
- IC50 ([3]; ligand 8749NT, read-out: IC50, concentration of Compound A-1 required to dissociate half of the complexed nucleic acid ligand and nucleolin protein): 10 µM
- cell localization judged by fluorescence intensity [4]: accumulated in the nucleoli, as well as the cytoplasm/perinuclear space
